Experiment [1] deals with P388. As to the kind of experiment: Cytotoxicity against mouse P388 cells. The class given is functional. As to conditions: read-out: ED50 (the source's name).
The test system of experiment [2] is P388. Kind of experiment: Cytotoxicity against mouse P388 cells by NMR biological activity study. The class given is functional. As to conditions: read-out: ED50 (the source's name).

Converted amounts (≈) assume the structure as drawn. Residues, ends and D or L forms follow the SMILES beside them.

For `CC[C@H](C)[C@@H]1NC(=O)[C@@H]2CCCN2C(=O)[C@H](Cc2ccccc2)NC(=O)[C@@H]2CCCN2C(=O)[C@H](Cc2ccc(O)cc2)NC(=O)[C@@H]2CCCN2C(=O)[C@H]([C@@H](C)CC)NC1=O.Cl` [PHAKELLISTATIN 2 (SYNTHETIC)] (cyclo(FPIIPYP)), the EC50 in the experiment with P388 [1] was found to be 24 µg/mL.
The same measure, in the same setting: as for `CC[C@H](C)[C@@H]1NC(=O)[C@@H]2CCCN2C(=O)[C@H](Cc2ccccc2)NC(=O)[C@@H]2CCCN2C(=O)[C@H](Cc2ccc(O)cc2)NC(=O)[C@@H]2CCCN2C(=O)[C@H]([C@@H](C)CC)NC1=O` [PHAKELLISTATIN 2] (cyclo(FPIIPYP)), the figure is 0.34 µg/mL (≈ 0.411 µM).
As to `CC[C@H](C)[C@@H]1NC(=O)[C@H](CC(C)C)NC(=O)[C@@H]2CCCN2C(=O)[C@H]([C@@H](C)CC)NC(=O)[C@@H]2CCCN2C(=O)[C@H](CO)NC(=O)[C@H](Cc2ccccc2)NC1=O` [STYLOPEPTIDE] (cyclo(FSPIPLI)), the figures for the EC50 in the experiment with P388 [1] and in the experiment with P388 [2] were 0.1 µg/mL (≈ 0.13 µM) and 6 µg/mL (≈ 7.81 µM), respectively.
Regarding `CC[C@H](C)[C@@H]1NC(=O)[C@H](C)NC(=O)[C@H](CC(C)C)NC(=O)[C@H](CO)NC(=O)[C@H](CC(N)=O)NC(=O)[C@H](Cc2ccccc2)NC(=O)[C@@H]2CCCN2C1=O` [STYLOSTATIN 1] (cyclo(AIPFNSL)), the EC50 with P388 [1] was found to be 10 µg/mL (≈ 13.5 µM).
